In US20060014733A1, “Histamine-3 agonists and antagonists” (Pfizer Inc, priority 2004, published 2006):

Each compound was assayed against T1, rat histamine H3 receptors (Rattus norvegicus, UniProt Q9QYN8) (assay: Rat H3 binding (3H-N-methylhistamine displacement, rat frontal brain membranes)). Conditions: radioligand 1 nM 3H-N-methylhistamine, 1 hour incubation.
T1 construct: Frozen rat frontal brain or frozen human post-mortem frontal brain is homogenized; from tissue; host or cells: rat frontal brain membranes
T1 sequence (Q9QYN8 whole entry): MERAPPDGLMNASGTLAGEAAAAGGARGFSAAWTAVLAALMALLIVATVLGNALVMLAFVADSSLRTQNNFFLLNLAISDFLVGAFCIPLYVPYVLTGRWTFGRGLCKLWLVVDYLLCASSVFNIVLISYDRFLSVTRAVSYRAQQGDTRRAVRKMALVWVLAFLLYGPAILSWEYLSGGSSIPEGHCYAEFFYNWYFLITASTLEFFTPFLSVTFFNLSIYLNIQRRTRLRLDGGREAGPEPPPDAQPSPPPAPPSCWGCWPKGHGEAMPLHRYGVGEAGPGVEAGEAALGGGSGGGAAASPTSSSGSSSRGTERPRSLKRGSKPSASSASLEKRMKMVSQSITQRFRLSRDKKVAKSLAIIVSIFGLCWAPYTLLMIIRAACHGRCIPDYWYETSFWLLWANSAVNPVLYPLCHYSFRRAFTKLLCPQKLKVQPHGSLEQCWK
Description: The in vitro affinity of the compounds in the present invention at the rat or human histamine H3 receptors can be determined according to the following procedure. Frozen rat frontal brain or frozen human post-mortem frontal brain is homogenized in 20 volumes of cold 50 mM Tris HCl containing 2 mM MgCl2 (pH to 7.4 at 4 degrees C.). The homogenate is then centrifuged at 45,000 G for 10 minutes. The supernatant is decanted and the membrane pellet re-suspended by Polytron in cold 50 mM Tris HCl containing 2 mM MgCl2 (pH to 7.4 at 4 degrees C.) and centrifuged again. The final pellet is re-suspended in 50 mM Tris HCl containing 2 mM MgCl2 (pH to 7.4 at 25 degrees C.) at a concentration of 12 mg/mL. Dilutions of compounds are made in 10% DMSO/50 mM Tris buffer (pH 7.4) (at 10×final concentration, so that the final DMSO concentration is 1%). Incubations are initiated by the addition of membranes (200 microliters) to 96 well V-bottom polypropylene plates containing 25 microliters of drug dilutions and 25 microliters of radioligand (1 nM final concentration ^3H-N-methylhistamine). After a 1 hour incubation, assay samples are rapidly filtered through Whatman GF/B filters and rinsed with ice-cold 50 mM Tris buffer (pH 7.4) using a Skatron cell harvester. Radioactivity is quantified using a BetaPlate scintillation counter.
A Ki of 75 nM was found for `CC(=O)Nc1cccc(-c2ccc(CN3CC[C@@H](N(C)C)C3)cc2)c1` [Example 45, (R)-N-[4′-(3-Dimethylamino-pyrrolidin-1-ylmethyl)-biphenyl-3-yl]-acetamide] in this work.
A Ki of 72 nM was found for `CN(C)[C@@H]1CCN(Cc2ccc(-c3ccc(S(C)(=O)=O)cc3)cc2)C1` [Example 43, (R)-[1-(4′-Methanesulfonyl-biphenyl-4-ylmethyl)-pyrrolidin-3-yl]-dimethylamine] in this work.
A Ki of 139 nM was found for `CC(=O)Nc1cccc(-c2ccc(CN3CC[C@H](N(C)C)C3)cc2)c1` [Example 44, (S)-N-[4′-(3-Dimethylamino-pyrrolidin-1-ylmethyl)-biphenyl-3-yl]-acetamide] in this work.
A Ki of 136 nM was found for `CN(C)[C@@H]1CCN(Cc2ccc(C3CCNCC3)cc2)C1` [Example 46, (R)-[1-(4-piperidin-4-ylbenzyl)-pyrrolidin-3-yl]-dimethylamine] in this work.
A Ki of 33 nM was found for `CN(C)[C@H]1CCN(Cc2ccc(C3CCNCC3)cc2)C1` [Example 47] in this work.
A Ki of 55 nM was found for `CN(C)[C@H]1CCN(Cc2ccc(-c3ccc(S(C)(=O)=O)cc3)cc2)C1` [Example 42, (S)-[1-(4′-Methanesulfonyl-biphenyl-4-ylmethyl)-pyrrolidin-3-yl]-dimethylamine] in this work.
